Reference: patent publication EP1310258A1, “Enantiomers of steroids for the enhancement of memory and cognitive function” (Baulieu, Etienne-Emile, priority 2001, dated 2003)
Structures can show the parent of a compound that is named as a salt.

Legend:
[1] = test system: NMDA receptor; assay: Coadministration of steroids with the NMDA receptor antagonist AP5, Y-maze recognition performance, rats; assay type: in vivo; settings: for memory performances when coadministered with AP5 compared to the group treated with the steroid alone: AP5 10 nmol ICV together with PREGS 0.5 nmol or ent-PREGS 0.05 nmol; for recognition performances of steroid alone compared with vehicle-controls: ICV effective doses alone (PREGS 0.5 nmol, ent-PREGS 0.05 nmol), P < 0.05
Protocol: (§1) The two-trial memory task based on spontaneous exploration of novelty was adapted from the ones described by Dellu et al. (1992, Brain Res., 588, 132-9) in rats and by Ladurelle et al. (2000, Brain Res., 858, 371-9) in mice.
(§2) Experiments were performed in a gray polyvinychloride Y-maze. The size of each arm was 40 cm long, 15 cm wide and 35 cm high for rats, and 30 cm long, 10 cm wide and 17 cm high for mice. The floor of the maze was covered with odor-saturated sawdust which was mixed after each trial. The maze was placed in a sound-attenuated room under dim illumination. Numerous visual cues were placed on the walls of the testing room and kept constant during the entire behavioral testing..
(§3) The test consisted of two trials, separated by a 6-h intertrial interval. During the first trial (acquisition phase), one arm of the Y-maze (subsequently called novel arm) was closed with a guillotine door, thus allowing the animal to explore only the other two arms, during 5 min and 3 min for rats and mice, respectively. During the second trial (retention phase), the animals had access to the three arms for 5 min. The time spent in each arm of the maze was recorded manually every minute. Recognition was assumed to have occurred when the animal spent more time in the novel arm compared with the familiar ones. The total number of arm visits provided a measure of general motor activity.
(§4) A between-subjects design was used where each observation was made for a separate animal. Data were reported as the amount of time spent in the novel arm relative to the total duration of visits in the three arms (novel/total x 100) during the first 3 min.
(§5) They were expressed as mean ± SEM and analyzed by using one-way ANOVA followed by Newmann-Keuls posthoc test. Significance was defined as P<0.05 or P<0.01.
(§6) The effects of the ICV injection of AP5, at ICV doses of 2 and 10 nmol in mice and rats, respectively, was studied on the memory-enhancing effects of PREGS (0.5 nmol in rats and 5.0 nmol in mice) and ent-PREGS (0.05 nmol in rats and 5.0 nmol in mice).

[2] = test system: NMDA receptor; assay: Coadministration of steroids with the NMDA receptor antagonist AP5, Y-maze recognition performance, mice; assay type: in vivo; settings: for memory performances when coadministered with AP5 compared to the group treated with the steroid alone: AP5 2 nmol ICV together with PREGS 5.0 nmol or ent-PREGS 5.0 nmol (so in the source); for recognition performances of steroid alone compared with vehicle-controls: ICV effective doses alone (PREGS 5.0 nmol, ent-PREGS 5.0 nmol as printed), P < 0.05
Protocol: as §1, §2, §3, §4, §5, §6

[3] = target: T1, steroid sulfatase (Rattus norvegicus, UniProt P15589); assay: In vitro metabolism: steroid sulfatase activity by rat brain microsomes; assay type: in vitro ADME; set-up: 200 µg microsomal proteins prepared from rat brain or liver; from tissue; host or cells: rat liver microsomes; settings: 8 µg steroid with 200 µg rat brain microsomal proteins, 37°C, 1 hour
T1 sequence (P15589 20-577): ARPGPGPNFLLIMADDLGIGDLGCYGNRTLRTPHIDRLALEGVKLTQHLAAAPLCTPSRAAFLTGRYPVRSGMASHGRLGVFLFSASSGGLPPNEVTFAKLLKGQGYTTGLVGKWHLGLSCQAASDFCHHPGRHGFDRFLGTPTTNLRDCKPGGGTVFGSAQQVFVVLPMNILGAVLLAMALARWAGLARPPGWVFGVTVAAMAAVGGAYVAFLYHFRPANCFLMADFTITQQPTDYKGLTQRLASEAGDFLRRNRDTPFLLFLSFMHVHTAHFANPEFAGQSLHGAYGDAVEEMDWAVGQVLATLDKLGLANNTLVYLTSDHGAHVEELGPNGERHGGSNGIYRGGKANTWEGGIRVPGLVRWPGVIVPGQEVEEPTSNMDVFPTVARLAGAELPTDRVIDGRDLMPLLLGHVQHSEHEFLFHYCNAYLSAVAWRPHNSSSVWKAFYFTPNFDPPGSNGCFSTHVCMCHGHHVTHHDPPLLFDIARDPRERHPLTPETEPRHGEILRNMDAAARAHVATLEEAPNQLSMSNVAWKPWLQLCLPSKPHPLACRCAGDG
Protocol: (§7) The metabolism of PREGS and ent-PREGS was examined after incubation of 8 µg of each steroid with 200 µg microsomal proteins prepared from rat brain or liver, at 37°C for lhour, and the unconjugated PREG was quantified in the brain by gas-chromatography-mass spectrometry (Liere et al., 2000, J. Chromatogr. B Biomed. Sci. Appl. 2000,739:301-12)
as §7, with “DHEAS” for “PREGS”, “ent-DHEAS” for “ent-PREGS”, “1hour,” for “lhour,”, “DHEA” for “PREG”

[4] = target: T1, steroid sulfatase; assay: In vitro metabolism: steroid sulfatase activity by rat liver microsomes; assay type: in vitro ADME; set-up: 200 µg microsomal proteins prepared from rat brain or liver; from tissue; host or cells: rat liver microsomes; settings: 37°C, 1 hour; for formation of DHEA (metabolism by sulfatase) / formation of PREG (metabolism by sulfatase): 8 µg steroid with 200 µg rat liver microsomal proteins
Protocol: as §7
as §7, with “DHEAS” for “PREGS”, “ent-DHEAS” for “ent-PREGS”, “1hour,” for “lhour,”, “DHEA” for “PREG”

[5] = test system: Male Sprague-Dawley rats; assay: Two-trial memory task (spatial recognition) in a Y-maze after ICV administration, rats; assay type: in vivo; settings: ICV immediately after acquisition, 6-h intertrial interval, Newman-Keuls P<0.05
Protocol: (§8) Male Sprague-Dawley rats and Swiss mice (Janvier, Le Genest St-Isle, France) 2 months of age and weighing 250-300g for rats and 30-32g for mice at the time of surgery were used. They were grouped-housed in a temperature (22°C ± 1°C) and humidity (50% ± 5%) controlled room. They were maintained on a 12-h light/12-h dark (08.00-20.00) schedule and had access to food and water ad libitum.
(§9) Rats were anaesthesized with a mixture of 5% ketamine (Imalgène 1000, Merial, France) and 0.1% acepromazine (Vetranquil 1%,) in saline, administered i.p. at 1.5 ml/kg. Mice were anesthetized with a mixture of 0.5% ketamine and 0.1% xylazine, under the volume of 15 ml/kg.
(§10) Animals were mounted in a stereotaxic and implanted with unilateral stainless steel cannula guides (23-gauge, 7 mm long) above the lateral ventricle, according to the coordinates from the atlas of rats and mice. Cannulas were secured to the skull with stainless steel screws and dental cement.
Animals were used for experiments after a 7-day postrecovery period. Each animal was handled daily for 3 days before the experiments and on the day before each experiment, cannula function was confirmed by gravity flow of isotonic saline.
PREGS was obtained from Steraloïds (Newport, RI, Etats-Unis); the steroid enantiomers ent-SPREG et ent-SDHEA were synthesized as previously described (Nilsson et al., 1998, op. cit.). All compounds were dissolved in […] (vehicle)
PREGS was administered iCV at doses of 0 (vehicle), 0.05, 0.25, 0.5, 2.5, 5.0 and 12.5 nmol in rats and of 0 (vehicle), 0.05, 0.25, 0.5, 2.5, 5.0 and 12.5 nmol mice
ent-PREGS was injected ICV at doses of 0 (vehicle), 0.025, 0.05, 0.25, 0.5 nmol in rats and 0 (vehicle), 0.025, 0.05, 0.25, 0.5 and 2.5 nmol in mice.
ent-SDHEA was administered iCV at doses of 0; 0,25; 0,25 nmol in rats.
Drug and control-vehicle solutions were injected unilaterally through the cannula guide. […]
(§11) The test consisted of two trials, separated by a 6-h intertrial interval. […] The time spent in each arm of the maze was recorded manually every minute. […]

[6] = test system: Swiss mice; assay: Two-trial memory task (spatial recognition) in a Y-maze after ICV administration, mice; assay type: in vivo; settings: ICV immediately after acquisition, 6-h intertrial interval, Newman-Keuls (PREGS P<0.05; ent-PREGS P<0.01)
Protocol: as §8, §9, §10
Animals were used for experiments after a 7-day postrecovery period. Each animal was handled daily for 3 days before the experiments and on the day before each experiment, cannula function was confirmed by gravity flow of isotonic saline. […]
as §11

[7] = target: T1, steroid sulfatase; assay: In vivo metabolism in rat brain: steroid sulfatase activity (GC-MS of unconjugated PREG); settings: 5 min after ICV administration of 1µg
Protocol: The metabolism of PREGS and ent-PREGS was investigated 5 min after ICV administration of 1µg of each compound in rat and the unconjugated PREG was quantified in the brain by gas-chromatography-mass spectrometry (Liere et al., 2000, J. Chromatogr. B Biomed Sci. Appl. 2000,739:301-12).

[8] = rat liver versus brain microsomes, 8 µg steroid, 200 µg protein

NC(CCCP(=O)(O)O)C(=O)O (stereo not drawn) [AP5] was tested. Which “recognition performance of AP5-treated group versus vehicle-control” value ([1]; AP5 alone 10 nmol ICV, P > 0.05) did it give?
The value was “did not significantly differ”.

And the “recognition performance of AP5-treated group versus vehicle-control” value ([2]; AP5 alone 2 nmol ICV, P > 0.05)?
The value was “did not significantly differ”.

For C[C@]12CC[C@H](OS(=O)(=O)O)CC1=CC[C@@H]1[C@@H]2CC[C@]2(C)C(=O)CC[C@@H]12 [DHEAS, dehydroepiandrosterone sulfate], which “formation of DHEA (metabolism by sulfatase)” value [3] is on record?
Its value is “metabolized into DHEA”.

What about the “formation of DHEA (metabolism by sulfatase)” value [4] of the same compound?
Its value is “metabolized into DHEA”.

And the “levels of DHEA in the liver relative to the brain” value [4, 8]?
The value was 5 times.

What does the source list for CC(=O)C1CCC2C3CC=C4CC(OS(=O)(=O)O)CCC4(C)C3CCC12C (stereo not drawn) [PREGS, pregnenolone sulfate]?
dose at which % time spent in the novel arm / memory performance was significantly increased relative to vehicle-control [5]: 0.5 nmol; dose at which % time spent in the novel arm / memory performance was significantly increased relative to vehicle-control [6]: 5.0 nmol; memory performances when coadministered with AP5 compared to the group treated with the steroid alone [1]: significantly reduced; recognition performances of steroid alone compared with vehicle-controls [1]: significantly increased; memory performances when coadministered with AP5 compared to the group treated with the steroid alone [2]: significantly reduced; recognition performances of steroid alone compared with vehicle-controls [2]: significantly increased; brain content of PREG compared with saline-injected control rats [7]: signicantly increased; formation of PREG (metabolism by sulfatase) [3]: metabolized into PREG; formation of PREG (metabolism by sulfatase) [4]: metabolized into PREG; levels of PREG in the liver relative to the brain [4, 8]: 4 times

What does the source list for C[C@@]12CC[C@@H]3[C@H](CC=C4C[C@H](OS(=O)(=O)O)CC[C@]43C)[C@H]1CCC2=O [ent-DHEAS]?
dose at which % time spent in the novel arm / memory performance was significantly increased relative to vehicle-control [5]: 0,025 nmol; formation of DHEA (metabolism by sulfatase) [3]: undectectable; formation of DHEA (metabolism by sulfatase) [4]: undectectable

With CC(=O)[C@@H]1CC[C@@H]2[C@H]3CC=C4C[C@H](OS(=O)(=O)O)CC[C@@]4(C)[C@@H]3CC[C@]21C [ent-PREGS] as the compound, how does the “dose at which % time spent in the novel arm / memory performance was significantly increased relative to vehicle-control” value [5] read?
Its value is 0.05 nmol.

And the “dose at which % time spent in the novel arm / memory performance was significantly increased relative to vehicle-control” value [6]?
The value was 0.5 nmol.

And the “memory performances when coadministered with AP5 compared to the group treated with the steroid alone” value [1]?
Its value is “did not perform differently”.

What about the “recognition performances of steroid alone compared with vehicle-controls” value [1] of the same compound?
The value was “significantly increased”.

And the “memory performances when coadministered with AP5 compared to the group treated with the steroid alone” value [2]?
The value was “did not perform differently”.

And the “recognition performances of steroid alone compared with vehicle-controls” value [2]?
The value was “significantly increased”.

What about the “brain content of PREG compared with saline-injected control rats” value [7] of the same compound?
Its value is “did not significantly differ”.

What about the “formation of PREG (metabolism by sulfatase)” value [3] of the same compound?
Its value is “undectectable”.

What about the “formation of PREG (metabolism by sulfatase)” value [4] of the same compound?
The value was “undectectable”.
